Measurements published in patent US20240228504A1, “SUBSTITUTED TRICYCLIC AMIDES, ANALOGUES THEREOF, AND METHODS USING SAME” (Arbutus Biopharma Corporation, priority 2020, published 2024).

Each compound was assayed on HBV rcDNA in HepDE19 cells (assay: HepDE19 assay with bDNA quantitation of HBV rcDNA). Conditions: HepDE19 assay, inhibition of rcDNA formation, bDNA quantitation; read-out: DE-19bDNA EC50.
Format: cell-based, hepatitis B virus

| Structure (SMILES) | EC50 |
| --- | --- |
| CN1Cc2[nH]c(=O)c3cc(F)ccc3c2C(N(C)C(=O)c2cc3ccccc3[nH]2)C1 (single isomer, unassigned) [Compound 60, N-(8-Fluoro-3-methyl-6-oxo-1,2,3,4,5,6-hexahydrobenzo[c][1,7]naphthyridin-1-yl)-N-methyl-1H-indole-2-carboxamide] | 5.9 µM |
| CN1Cc2[nH]c(=O)c3cc(F)ccc3c2C(N(C)C(=O)c2cc3ccccc3[nH]2)C1 (single isomer, unassigned) [Compound 61, N-(8-Fluoro-3-methyl-6-oxo-1,2,3,4,5,6-hexahydrobenzo[c][1,7]naphthyridin-1-yl)-N-methyl-1H-indole-2-carboxamide] | 2.3 µM |
| CN1Cc2[nH]c(=O)c3cc(F)c(F)cc3c2C(N(C)C(=O)c2cc3ccccc3[nH]2)C1 (single isomer, unassigned) [Compound 62, N-(8,9-Difluoro-3-methyl-6-oxo-1,2,3,4,5,6-hexahydrobenzo[c][1,7]naphthyridin-1-yl)-N-methyl-1H-indole-2-carboxamide] | 5.1 µM |
| CN1Cc2[nH]c(=O)c3cc(F)c(F)cc3c2C(N(C)C(=O)c2cc3ccccc3[nH]2)C1 (single isomer, unassigned) [Compound 63, N-(8,9-Difluoro-3-methyl-6-oxo-1,2,3,4,5,6-hexahydrobenzo[c][1,7]naphthyridin-1-yl)-N-methyl-1H-indole-2-carboxamide] | 0.17 µM |
| CC(=O)N1Cc2[nH]c(=O)c3cc(F)ccc3c2C(N(C)C(=O)c2cc3ccccc3[nH]2)C1 (single isomer, unassigned) [Compound 68, N-(3-Acetyl-8-fluoro-6-oxo-1,2,3,4,5,6-hexahydrobenzo[c][1,7]naphthyridin-1-yl)-N-methyl-1H-indole-2-carboxamide] | 5.5 µM |
| CC(=O)N1Cc2[nH]c(=O)c3cc(F)ccc3c2C(N(C)C(=O)c2cc3ccccc3[nH]2)C1 (single isomer, unassigned) [Compound 69, N-(3-Acetyl-8-fluoro-6-oxo-1,2,3,4,5,6-hexahydrobenzo[c][1,7]naphthyridin-1-yl)-N-methyl-1H-indole-2-carboxamide] | 21 µM |
| CN(C(=O)c1cc2ccccc2[nH]1)C1CNCc2[nH]c(=O)c3cc(F)ccc3c21 (single isomer, unassigned) [Compound 77, N-(8-Fluoro-6-oxo-1,2,3,4,5,6-hexahydrobenzo[c][1,7]naphthyridin-1-yl)-N-methyl-1H-indole-2-carboxamide] | 0.15 µM |
| CN(C(=O)c1cc2ccccc2[nH]1)C1CNCc2[nH]c(=O)c3cc(F)ccc3c21 (single isomer, unassigned) [Compound 78, N-(8-Fluoro-6-oxo-1,2,3,4,5,6-hexahydrobenzo[c][1,7]naphthyridin-1-yl)-N-methyl-1H-indole-2-carboxamide] | 8.1 µM |
| CN(C(=O)c1cc2ccccc2[nH]1)C1CN(CCO)Cc2[nH]c(=O)c3cc(F)ccc3c21 (single isomer, unassigned) [Compound 80, N-(8-Fluoro-3-(2-hydroxyethyl)-6-oxo-1,2,3,4,5,6-hexahydrobenzo[c][1,7]naphthyridin-1-yl)-N-methyl-1H-indole-2-carboxamide] | 6.3 µM |
| CC(=O)N1Cc2[nH]c(=O)c3cc(F)c(F)cc3c2C(N(C)C(=O)c2cc3ccccc3[nH]2)C1 (single isomer, unassigned) [Compound 81, N-(3-Acetyl-8,9-difluoro-6-oxo-1,2,3,4,5,6-hexahydrobenzo[c][1,7]naphthyridin-1-yl)-N-methyl-1H-indole-2-carboxamide] | 14 µM |

Same assay, conditions: Hepatitis B virus, HepDE19, HepDE19 assay, inhibition of rcDNA formation, bDNA quantitation; read-out: DE-19bDNA EC50

| Structure (SMILES) | EC50 |
| --- | --- |
| CN(C(=O)c1cc2ccccc2[nH]1)C1CN(CCO)Cc2[nH]c(=O)c3cc(F)ccc3c21 (single isomer, unassigned) [Compound 79, N-(8-Fluoro-3-(2-hydroxyethyl)-6-oxo-1,2,3,4,5,6-hexahydrobenzo[c][1,7]naphthyridin-1-yl)-N-methyl-1H-indole-2-carboxamide] | 10 µM |
